Values belong to the molecule of their own block, whether it stands above or below them. Where a SMILES comes first, the peptide text is derived from it.
What was measured:
HLA-A2.1 = HLA-A2.1 (Homo sapiens, UniProt P04439, D140Y/D185E/D98H/E176V/E277Q/G131W/G231S/I119V/I121R/I166T/I218V/L300P/L318F/N151K/N90K/P208A/P217A/Q86G/Q94H/R138H/R169H/T345S); test: HLA-A2.1 binding assay of modified peptides, inhibition of radiolabeled Hbc 18-27 (Example 5)
[1] = test system: T2 cell lines preincubated with peptide; test: Recognition of modified peptides by natural epitope (M9-2, G9-154, G9-209, G9-280) reactive T-cells, 51Cr release on peptide-pulsed T2 cells (Example 5); assay type: cell-based, human
Method: (§1) Assessment of antigen recognition by CTL. ^51Cr release cytotoxic assays were performed to detect the recognition of peptide and melanoma cells by CTL. To analyze peptide recognition, T2 cell lines were preincubated for 2 h at 37° C. with 1 ug/ml peptide, washed and used as target cells in a ^51Cr release cytotoxic assay. The melanoma lines 624mel was established in our laboratory (See Example 1).
In order to make more immunogenic peptides for induction of anti-melanoma T-cells than natural melanoma epitopes, a variety of peptides in which at least 1 amino acid was changed based on consensus motifs in peptides binding to a specific MHC Class I allele Falk, et al. (1991) Nature 351:290; Kubo et al. (1994) J. Immunol 152:3913; Parker, K. et al. (1992) Journal of Immunology 149:3580; Ruppert, J. et al. (1993) Cell 74:929-937) (Tables 14, 15, 16, and 17). […] By changing amino acid at the 1st, 2nd, 3rd or 9th positions which are important for HLA-A2 binding to the peptide, but less important for recognition by T-cell receptors, artificial peptides which can bind to HLA-A2.1 with higher affinity and still be recognized by natural epitope specific T-cells may be generated.

T2 cells = test: Induction of peptide specific CTL from PBL, 51Cr release against T2 cells with or without peptide (Example 5); assay type: cell-based, human; conditions: E:T = 3D40:1
Method: (§2) Induction of peptide specific CTL PBMC were separated from peripheral blood of HLA-A2+ melanoma patients and normal donors by centrifugation on Ficoll-Hypaque gradients and used as fresh or cryopreserved samples. […] Two days later, 12 IU/ml interleukin 2 (IL-2) (Chiron Co., Emeryville, Calif.) were added to the cultures. Lymphocytes were then restimulated weekly as follows: responder cells were harvested, washed once and replated in 24-well plates at a concentration of 2.5×10^5 cells/ml in CM. Autologous PBMC were thawed, washed twice in PBS, resuspended at 5-8×10^6 cells/ml in CM and pulsed with 1 ug/ml peptide in 15-ml conical tubes (5 ml/tube) for 3 hours at 37° C. These PBMC (stimulators) were then irradiated at 3000 rads, washed once in PBS and added to the responder cells at responder:stimulator ratios ranging between 1:3 and 1:10. The next day, 12 IU/ml IL-2 were added to the cultures. The activity of these CTL was tested by cytotoxicity assays after at least 2 rounds (14 days) of peptide stimulation. To generate CTL from TIL cultures, the dissociated tumor suspension were cultured for 1-2 days in 10% FCS RPMI-1640 medium to allow tumor cell adherence. The lymphocytes, recovered from the non-adherent fraction, were used for the induction of peptide specific CTL as described above.
as §1

[2] = test system: 624mel melanoma cell line; test: Induction of peptide specific CTL from PBL, 51Cr release against melanoma cells (Example 5); assay type: cell-based, human; conditions: for recognition and lysis of original epitopes and melanoma tumor cells (624 mel) by PBL stimulated with the peptide, compared with natural epitopes: PBL stimulated with autologous PBMC pulsed with peptide; for % specific lysis by PBL stimulated with the peptide: target 624mel, E:T = 3D40:1
Method: as §2, §1

HLA-A2.1+ T2 cell line = test: 51Cr release cytotoxicity assay: TIL lysis of T2 cells preincubated with synthetic MART-1 peptides (Example 2); assay type: cell-based, human
[3] = target T2 + G9-154-2I, after 4 stimulations
[4] = target T2 + G9-154, after 4 stimulations
[5] = target T2, after 4 stimulations (Table 18)
[6] = after 4 stimulations (Table 18)

SMILES: CC[C@H](C)[C@H](NC(=O)[C@@H](N)CCCCN)C(=O)N[C@@H](Cc1c[nH]c2ccccc12)C(=O)NCC(=O)N[C@@H](CCC(N)=O)C(=O)N[C@@H](Cc1ccc(O)cc1)C(=O)N[C@@H](Cc1c[nH]c2ccccc12)C(=O)N[C@@H](CCC(N)=O)C(=O)N[C@H](C(=O)O)C(C)C [G9-154-2I] (H-KIWGQYWQV-OH; N-terminus and C-terminus assumed)
IC50 (HLA-A2.1; modified gp100 G9-154 peptides, read-out: Binding affinity to HLA-A2.1): 3 nM
Recognition by G9-154 reactive T-cell [1]: + (+, recognized)
% specific lysis by PBL stimulated with the peptide (T2 cells; [3]): 38%
% specific lysis by PBL stimulated with the peptide (T2 cells; [4]): 37%
% specific lysis by PBL stimulated with the peptide (T2 cells; [5]): 1%
recognition and lysis of original epitopes and melanoma tumor cells (624 mel) by PBL stimulated with the peptide, compared with natural epitopes [2]: better
% specific lysis by PBL stimulated with the peptide [2, 6]: 23%

SMILES: CC[C@H](C)[C@H](N)C(=O)N[C@@H](CCSC)C(=O)N[C@@H](CC(=O)O)C(=O)N[C@@H](CCC(N)=O)C(=O)N[C@H](C(=O)N1CCC[C@H]1C(=O)N[C@@H](Cc1ccccc1)C(=O)N[C@@H](CO)C(=O)N[C@H](C(=O)O)C(C)C)C(C)C [G9-209-2M]
binding affinity to HLA-A2.1 compared with the natural epitope (HLA-A2.1): higher binding affinity
Recognition by G9-209 reactive T-cell [1]: + (+, recognized)
recognition by the original melanoma reactive T-cells [1]: recognized

SMILES: CC(C)[C@H](NC(=O)[C@H](CCC(N)=O)NC(=O)[C@H](Cc1c[nH]c2ccccc12)NC(=O)[C@H](Cc1ccc(O)cc1)NC(=O)[C@H](CCC(N)=O)NC(=O)CNC(=O)[C@H](Cc1c[nH]c2ccccc12)NC(=O)[C@@H](NC(=O)[C@@H](N)CCCCN)[C@@H](C)O)C(=O)O [G9154]
Recognition by G9-154 reactive T-cell [1]: + (+, recognized)
% specific lysis by PBL stimulated with the peptide (T2 cells; [3]): 8%
% specific lysis by PBL stimulated with the peptide (T2 cells; [4]): 14%
% specific lysis by PBL stimulated with the peptide (T2 cells; [5]): 11%
% specific lysis by PBL stimulated with the peptide [2, 6]: 5%

SMILES: CC[C@H](C)[C@H](NC(=O)CNC(=O)[C@H](C)NC(=O)[C@@H](N)Cc1ccccc1)C(=O)NCC(=O)N[C@H](C(=O)N[C@@H](CC(C)C)C(=O)N[C@H](C(=O)N[C@H](C(=O)O)C(C)C)[C@@H](C)O)[C@@H](C)CC [M9-2-1F]
binding affinity to HLA-A2.1 compared with the natural epitope (HLA-A2.1): higher binding affinity
Recognition by M9-2 reactive T-cell [1]: + (+, recognized)
recognition by the original melanoma reactive T-cells [1]: recognized

SMILES: CC[C@H](C)[C@H](NC(=O)CNC(=O)[C@H](CC(C)C)NC(=O)[C@H](C)N)C(=O)NCC(=O)N[C@H](C(=O)N[C@@H](CC(C)C)C(=O)N[C@H](C(=O)N[C@H](C(=O)O)C(C)C)[C@@H](C)O)[C@@H](C)CC [M9-2-2L]
binding affinity to HLA-A2.1 compared with the natural epitope (HLA-A2.1): higher binding affinity
Recognition by M9-2 reactive T-cell [1]: + (+, recognized)
recognition by the original melanoma reactive T-cells [1]: recognized

SMILES: CC[C@H](C)[C@H](NC(=O)CNC(=O)[C@@H](NC(=O)[C@H](Cc1ccc(O)cc1)NC(=O)[C@H](C)NC(=O)[C@H](C)N)[C@@H](C)CC)C(=O)N[C@@H](CC(C)C)C(=O)N[C@H](C(=O)N[C@H](C(=O)O)C(C)C)[C@@H](C)O [M9-2-3Y]
binding affinity to HLA-A2.1 compared with the natural epitope (HLA-A2.1): higher binding affinity
Recognition by M9-2 reactive T-cell [1]: + (+, recognized)
recognition by the original melanoma reactive T-cells [1]: recognized

SMILES: CC[C@H](C)[C@H](NC(=O)CN)C(=O)NCC(=O)N[C@H](C(=O)N[C@@H](CC(C)C)C(=O)N[C@H](C(=O)N[C@H](C(=O)N[C@H](C(=O)N[C@@H](CC(C)C)C(=O)O)[C@@H](C)CC)C(C)C)[C@@H](C)O)[C@@H](C)CC [M9-3] (H-GIGILTVIL-OH)
% specific lysis (HLA-A2.1+ T2 cell line; T2 + peptide 10 ug/ml, effector TIL 660, E:T 40:1, 4 h): 0%
% specific lysis (HLA-A2.1+ T2 cell line; T2 + peptide 10 ug/ml, effector TIL 1074, E:T 40:1, 4 h): 10%
% specific lysis (HLA-A2.1+ T2 cell line; T2 + peptide 10 ug/ml, effector TIL 1235, E:T 40:1, 4 h): 20%
% specific lysis (HLA-A2.1+ T2 cell line; T2 + peptide 10 ug/ml, effector TIL clone A42, E:T 20:1, 4 h): 18%
% specific lysis (HLA-A2.1+ T2 cell line; purified peptide 1 ug/ml, TIL 501, E:T 40:1): 5%
% specific lysis (HLA-A2.1+ T2 cell line; purified peptide 1 ug/ml, TIL 620, E:T 40:1): 25%
% specific lysis (HLA-A2.1+ T2 cell line; purified peptide 1 ug/ml, TIL 660, E:T 40:1): 0%
% specific lysis (HLA-A2.1+ T2 cell line; purified peptide 1 ug/ml, TIL 1074, E:T 40:1): 1%
% specific lysis (HLA-A2.1+ T2 cell line; purified peptide 1 ug/ml, TIL 1088, E:T 40:1): 19%
% specific lysis (HLA-A2.1+ T2 cell line; purified peptide 1 ug/ml, TIL 1128, E:T 40:1): 0%
% specific lysis (HLA-A2.1+ T2 cell line; purified peptide 1 ug/ml, TIL 1143, E:T 40:1): 1%
% specific lysis (HLA-A2.1+ T2 cell line; purified peptide 1 ug/ml, TIL 1200, E:T 40:1): −2%
% specific lysis (HLA-A2.1+ T2 cell line; purified peptide 1 ug/ml, TIL 1235, E:T 40:1): 0%
% specific lysis (HLA-A2.1+ T2 cell line; purified peptide 1 ug/ml, TIL 1363, E:T 40:1): −2%
% specific lysis (HLA-A2.1+ T2 cell line; purified peptide 1 ug/ml, clone A42, E:T 20:1): −4%
recognition by either A42 or TIL1235 (HLA-A2.1+ T2 cell line; purified peptides, titration (FIG. 2)): not recognized

More lines, main results first:

binding affinity to HLA-A2.1 compared with the natural epitope (HLA-A2.1): higher binding affinity
SMILES: CC(C)C[C@H](NC(=O)[C@@H](N)Cc1ccccc1)C(=O)N[C@@H](CC(=O)O)C(=O)N[C@@H](CCC(N)=O)C(=O)N[C@H](C(=O)N1CCC[C@H]1C(=O)N[C@@H](Cc1ccccc1)C(=O)N[C@@H](CO)C(=O)N[C@H](C(=O)O)C(C)C)C(C)C [G9-209-1F2L]
Recognition by G9-209 reactive T-cell [1]: + (+, recognized)
recognition by the original melanoma reactive T-cells [1]: recognized
% specific lysis by PBL stimulated with the peptide (T2 cells; target T2 + G9-209-1F2L, after 4 stimulations): 86%
% specific lysis by PBL stimulated with the peptide (T2 cells; target T2 + G9-209, after 4 stimulations): 85%
% specific lysis by PBL stimulated with the peptide (T2 cells; target T2, after 4 stimulations (Table 19)): 0%
recognition and lysis of original epitopes and melanoma tumor cells (624 mel) by PBL stimulated with the peptide, compared with natural epitopes [2]: better
% specific lysis by PBL stimulated with the peptide ([2]; after 4 stimulations (Table 19)): 63%

binding affinity to HLA-A2.1 compared with the natural epitope (HLA-A2.1): higher binding affinity
SMILES: CC(C)C[C@H](NC(=O)[C@@H](N)Cc1ccc(O)cc1)C(=O)N[C@@H](CC(=O)O)C(=O)N[C@@H](CCC(N)=O)C(=O)N[C@H](C(=O)N1CCC[C@H]1C(=O)N[C@@H](Cc1ccccc1)C(=O)N[C@@H](CO)C(=O)N[C@H](C(=O)O)C(C)C)C(C)C [G9-209-1Y2L]
Recognition by G9-209 reactive T-cell [1]: + (+, recognized)
recognition by the original melanoma reactive T-cells [1]: recognized

binding affinity to HLA-A2.1 compared with the natural epitope (HLA-A2.1): higher binding affinity
SMILES: CC(C)[C@H](NC(=O)[C@H](CO)NC(=O)[C@H](Cc1ccccc1)NC(=O)[C@@H]1CCCN1C(=O)[C@@H](NC(=O)[C@H](CCC(N)=O)NC(=O)[C@H](CC(=O)O)NC(=O)[C@@H](NC(=O)[C@@H](N)Cc1ccc(O)cc1)[C@@H](C)O)C(C)C)C(=O)O [G9-209-1Y]
Recognition by G9-209 reactive T-cell [1]: + (+, recognized)
recognition by the original melanoma reactive T-cells [1]: recognized

binding affinity to HLA-A2.1 compared with the natural epitope (HLA-A2.1): higher binding affinity
SMILES: CC[C@H](C)[C@H](N)C(=O)N[C@H](C(=O)N[C@@H](CC(=O)O)C(=O)N[C@@H](CCC(N)=O)C(=O)N[C@H](C(=O)N1CCC[C@H]1C(=O)N[C@@H](Cc1ccccc1)C(=O)N[C@@H](CO)C(=O)N[C@H](C(=O)O)C(C)C)C(C)C)[C@@H](C)CC [G9-209-2I]
Recognition by G9-209 reactive T-cell [1]: + (+, recognized)
recognition by the original melanoma reactive T-cells [1]: recognized

binding affinity to HLA-A2.1 compared with the natural epitope (HLA-A2.1): higher binding affinity
SMILES: CC[C@H](C)[C@H](N)C(=O)N[C@@H](CC(C)C)C(=O)N[C@@H](CC(=O)O)C(=O)N[C@@H](CCC(N)=O)C(=O)N[C@H](C(=O)N1CCC[C@H]1C(=O)N[C@@H](Cc1ccccc1)C(=O)N[C@@H](CO)C(=O)N[C@H](C(=O)O)C(C)C)C(C)C [G9-209-2L]
Recognition by G9-209 reactive T-cell [1]: + (+, recognized)
recognition by the original melanoma reactive T-cells [1]: recognized

Source: patent publication US8273724B2, “Melanoma antigens and their use in diagnostic and therapeutic methods” (The United States of America, as represented by the …, priority 1994, dated 2012)
